According to BindingDB's records for doi:10.1016/s0960-894x(98)00091-2 (Eli Lilly, 1999):

Target: NMDA receptor (Rattus norvegicus)
Assay: Binding affinity against Ionotropic glutamate receptor using [3H]- CGS-19755 displacement from rat forebrain preparations

SMILES: N[C@@H](C[C@H](CCC(c1ccccc1)c1ccccc1)C(=O)O)C(=O)O [(2S,4S)-2-Amino-4-(3,3-diphenyl-propyl)-pentanedioic acid]
- IC50: 13.2 µM
